Source: patent publication US5969174A, “Competitive inhibitors of glyoxalase I and method of generating such competitive inhibitors inside tumor cells” (priority 1998, dated 1999)
“Also recorded” adds a separate entry of the source. Where two headings read alike, the source gives them in different places.

What was measured:
human erythrocyte GlxI = details: of the unethylated species with human erythrocyte GlxI (17); read-out: Ki, competitive inhibition constant; cited from earlier work
[1] = tested on: B16 melanotic melanoma cells; test: Growth inhibition, B16 melanotic melanoma cells in culture; format: cell-based, murine; details: for IC50: Mus musculus, 48 h, RPMI 1640/10% fetal calf serum, 37° C., fresh inhibitor every 12 h, mean ± SD, read-out: IC50, 50% growth inhibition, B16
Procedure: As a consequence, they are the strongest competitive inhibitors of human GlxI yet described, Table 1. […] With both cell lines there was some correlation between the Ki values of the enediol analogs and the IC50 values of the corresponding diethyl esters.
^d Sp-bromobenzylglutathione diethyl ester. Cells were incubated for
48 h in RPMI 1640/10% fetal calf serum (37° C.) in the absence and
in the presence of enzyme inhibitor. After the initial addition of
inhibitor at time zero, fresh inhibitor was added every 12 h in order to
compensate partially for the loss of inhibitor due to spontaneous
hydrolytic deethylation in the growth medium.

Stability in human serum = format: in vitro ADME
Procedure: To 0.5 ml portions of either human serum or mouse serum, at 37° C., was added compound 2(Et)2 to an initial concentration of approximately 0.15 mM. As a function of time, 0.1 ml aliquots of the incubation mixture were transferred to separate microfuge tubes. The samples were immediately deproteinized by the addition of 70% ethanol (0.9 ml). After incubation for 30 minutes at 37° C., the protein precipitate was sedimented by centrifugation at […]. The supernatants were then fractionated by reverse-phase HPLC, as described above, and the integrated intensities of the peaks corresponding to 2(Et)2 determined. The rate constants for deethylation were calculated from the first-order rate of loss of 2(Et)2 as a function of time.
To identify a murine model suitable for in vivo testing of the GlxI inhibitors, the stability of 2(Et)2 was evaluated in human serum and in serum samples obtained from different strains of tumor-bearing mice. In human serum, 2(Et)2 undergoes slow first-order hydrolysis to a mixture of diacid and monoethyl esters, as monitored by reverse-phase HPLC (FIG. 6). For serum samples obtained from four different individuals, T1/2 =9.1±5.3 hours (n=4). […]

L1210 cells [2] = test: Cell permeability / intracellular appearance of enediol analog in L1210 cells; format: in vitro ADME, murine
Procedure: In order to understand the mechanism of intracellular delivery of the enediol analogs, suspensions of L1210 cells were separately incubated with the diacid 2 and with the corresponding diethyl ester 2(Et)2. The rate of appearance of these species in the intracellular fraction was then monitored as a function of time by reverse-phase HPLC (FIG. 4). […] After 90 minutes, the concentration of 2 decreased, possibly due to a combination of factors including (a) 10-20% cell death over the course of the experiment, (b) hydrolytic deethylation of extracellular 2(Et)2, and (c) GlxII-catalyzed decarbamoylation of intracellular 2.
To suspensions of L1210 cells (~1.5(10^6 cells/ml) in RPMI 1640 medium, containing 10% heat-inactivated fetal calf serum, gentamycin (10 μg/ml) and L-glutamate, at 37° C., were added fixed concentrations of 2a. Aliquots (1 ml) were removed from the cell suspension as a function of time, overlaid onto 0.4 ml of silicone oil (SF-1250 silicone fluids, General Electric Co., Silicone Products Division, Waterford, N.Y.) contained in an eppendorf centrifuge tube and centrifuged at 11,000×g (15 min) at 25° C. The supernatant and silicone oil were decanted from the cell pellet and residual oil removed from the inside of the centrifuge tube with a cotton swab. To the pellet was added 1 ml 70% ethanol in water and the suspension sonicated for 5 minutes. The denatured protein was sedimented by centrifugation (11,000×g, 15 min) and the clear supernatant was removed. The supernatant was brought to dryness under a stream of argon, and the resulting residue was fractionated by reverse-phase HPLC (Waters μBondapak C18, 0.78(30 cm), using a mobile phase composed of methanol:water (1:1) containing 0.25% acetic acid at a flow rate of 2 ml/min. The integrated intensity of the peak corresponding S-(N-p-chlorophenyl-N-hydroxycarbamoyl) glutathione was determined at λ=260 nm. Concentrations were extrapolated from standard curves that were linear in the range 0.1 to 4.0 nmoles (r=0.997).

splenic lymphocytes = test: Toxicity toward nonproliferating splenic lymphocytes; format: cell-based; details: for toxicity to splenic lymphocytes / selectivity in words: L1210 cells versus splenic lymphocytes
From the text: Conditions: See Table 1. Error bars represent standard deviations for triplicate determinations. Different symbols correspond to experiments carried out on different days.
This is illustrated for 2(Et)2 and S-p-bromobenzylglutathionediethyl ester by the dose-response curves of FIG. 3. […] Therefore, tumor cells might not be able to detoxify the inhibitors as rapidly as normal cells. In order to determine whether this could be a factor in the present study, the glyoxalase activities in both L1210 cells and splenic lymphocytes were determined. Indeed, while the GlxI activities in the two cell lines are nearly equal, the GlxII activity in L1210 cells is about 10-fold lower than that in splenic lymphocytes. The activities of GlxI and GlxII in L1210 cells were respectively 0.31±0.03 U/mg and 0.02±0.003 U/mg, while the activities in splenic lymphocytes were respectively 0.36±0.03U/mg and 0.20±0.03 U/mg.

L1210 cells [3] = test: Growth inhibition / cytotoxicity, murine leukemia L1210 cells in culture; format: cell-based; details: for IC50: L1210, 48 h
[4] = Stability in mouse serum/plasma; format: in vitro ADME
[5] = n-octanol/water partition coefficient
[6] = Acyl-interchange reaction with glutathione in a cell-free system; format: physicochemical
Procedure: In principle, an acyl-interchange reaction might serve as the basis of an improved prodrug strategy, provided that the acylating reagent diffuses rapidly across cell membranes and then reacts rapidly with intracellular glutathione to give the enediol analog. Three N-hydroxycarbamate thioethyl esters (2(a-c)) and the corresponding sulfoxides (3(a-c)) were prepared (FIG. 7) and their rates of acyl-interchange with glutathione in a cell free system evaluated (Table II). Sulfoxidation of N,N-di-n-propylcarbamate thioalkyl esters activates these species for acyl-interchange with glutathione. […] The N--OH function appears to inductively activate the sulfoxides for acyl-interchange, as the rate constant for 3a exceeds that of the corresponding N--CH3 derivative 3c by 13-fold. The products of the interchange reactions were confirmed as the corresponding enediol analogs, on the basis that their UV spectra and their migratory properties on a reverse-phase C18 column were identical with those of authentic samples of enediol analog.
Second order rate constants for the
acyl-interchange reactions between glutathione and the list thioesters
CH3 CH2 XC(O)N(Y)Z + GSG ---(k2)--> GSC(O)B(Y)Z +
Conditions: Potassium phosphate buffer (50 mM), pH 7.5, 5% ethanol, […]

L1210 cells [7] = test: Cell permeability / intracellular appearance of enediol analog in L1210 cells; format: in vitro ADME, murine; remark: listed apart in the source
[8] = tested on: rat adrenal pheochromocytoma PC-12 cells; details: literature (26); read-out: IC50, growth of PC-12 cells; cited from earlier work
HL60 cells [9] = details: cited from earlier work
HL60 cells [10] = details: literature (15); cited from earlier work
tumor cells = details: literature (5-8); cited from earlier work
GlxII = details: cited from earlier work
human tumor cell lines = details: literature; cited from earlier work
[11] = Mus musculus, RPMI 1640/10% fetal calf serum, 37° C., fresh inhibitor every 12 h, mean ± SD, read-out: IC50, 50% growth inhibition, L1210

Structure (SMILES): CCOC(=O)CNC(=O)[C@H](CSC(=O)N(O)c1ccc(Cl)cc1)NC(=O)CC[C@H](N)C(=O)OCC [2(Et)2, S-(N-p-chlorophenyl N-hydroxycarbamoyl) glutathione diethyl ester]
- Ki (human erythrocyte GlxI): 0.046 µM
- growth inhibition / cytotoxicity in words, B16 ([1]; B16 cells in vitro): inhibited the growth
- IC50 [1]: 28 ± 7 µM
- first order rate constant for deethylation in human serum (Stability in human serum; 37° C., FIG. 6): 0.147 ± 0.015 h⁻¹
- half-life at 150 µM (Stability in human serum; human, serum, n=4, read-out: T1/2 in human serum (converted)): 9.1 ± 5.3 h
- intracellular uptake in words (L1210 cells [2]; L1210 cells): rapid increase in intracellular [2] during the first 90 min; also recorded: linear function of extracellular [2(Et)2 ] in the range 0.01 to 1.0 mM; also recorded: Only trace amounts of the monoethyl esters and diethyl ester of 2 were found in the intracellular fractions; also recorded: high intracellular concentrations of the corresponding diacid 2
- maximum concentration of 2 inside cells versus extracellular concentration of 2(Et)2 (L1210 cells [2]; exceeds extracellular): about three-fold
- apparent first order rate constant for diffusion of diethyl ester into L1210 cells (L1210 cells [2]; in vitro, 37° C.): 0.04 min⁻¹
- first order rate constant for appearance of 2 inside L1210 cells (L1210 cells [2]; incubated in the presence of 2(Et)2): 2.2 h⁻¹
- decrease in viability of splenic lymphocytes (splenic lymphocytes; 100 μM): less than 50%
- toxicity to splenic lymphocytes / selectivity in words (splenic lymphocytes): significantly more toxic to L1210 cells than to splenic lymphocytes
- growth inhibition / cytotoxicity in words, L1210 (L1210 cells [3]; L1210 cells in vitro): inhibited the growth
- cytotoxicity at 100 µM (L1210 cells [3]; Mus musculus, L1210, 48 h, 100 μM, read-out: killing of L1210 cells): ~100%
- IC50 (L1210 cells [3]; [11]): 9.5 ± 3.8 µM
- half-life at 150 µM ([4]; mouse, serum, DBA/2(C57BL/6 mice, n=5, read-out: T1/2 in serum of plasma esterase-deficient mice (converted)): 3.9 ± 0.6 h
- half-life at 150 µM ([4]; mouse, serum, DBA/2, C57BL/6, NCr nu/nu and CD2 F1 mice, read-out: T1/2, deethylation in mouse serum): < 0.00833 h
- logP [5]: 0.996

Structure (SMILES): CC[S+]([O-])C(=O)N(O)c1ccc(Cl)cc1 (stereo not drawn) [Compound 3a, S-(N-Hydroxy-N-p-chlorophenylcarbamoyl)ethyl sulfoxide]
- apparent first order rate constant for appearance of enediol analog inside the cells on incubation with sulfoxide (L1210 cells [2]): 1.41±0.03 min^-1
- intracellular uptake in words (L1210 cells [2]): rapid increase in the intracellular concentration of the corresponding enediol analog
- maximum intracellular concentration of inhibitor versus extracellular concentration of sulfoxide (L1210 cells [2]): about 10 -fold
- rate of influx of sulfoxide relative to diethyl ester 1(Et)2 (L1210 cells [2]): 35 -fold
- time to maximum intracellular concentration of inhibitor (L1210 cells [2]): about 17 minutes
- greater potency of sulfoxide versus diethyl ester (L1210 cells [3]; L1210 cells): 10 -fold
- greater potency of sulfoxide versus diethyl ester (L1210 cells [3]; L1210 cells, listed as S-(N-p-chlorophenyl-N-hydroxycarbamoyl)ethylsulfoxide): about 10 -fold
- IC50 (L1210 cells [3]; Mus musculus, fresh drug every 12 h, read-out: IC50 toward L1210 cells, sulfoxide): 0.8 ± 0.5 µM
- first order rate constant for loss of sulfoxide from serum ([4]; DBA/2 mice, n=3): 0.06 ± 0.01 min⁻¹
- half-life ([4]; mouse, serum, DBA/2 mice, n=3, read-out: T1/2 of sulfoxide in serum): 0.217 ± 0.0333 h
- rate constant relative to thioester 2a [6]: exceed by several-fold that with the thioester 2 a
- k2, second order rate constant for acyl-interchange with glutathione ([6]; 50 mM potassium phosphate, pH 7.5, 5% ethanol, 25° C.): 30.7 ± 1.2 M⁻¹ s⁻¹
- second order rate constant for acyl-interchange reaction ([6]; 100 mM potassium phosphate, 5% ethanol, pH 7.5, 25° C.): 30.7 M⁻¹ s⁻¹
- rate constant relative to N--CH3 derivative 3c ([6]; exceeds): 13 -fold
- reduction of intracellular glutathione concentration (L1210 cells [7]): less than 1%

Structure (SMILES): CC(C)OC(=O)CNC(=O)[C@H](CSC(=O)OCC1c2ccccc2-c2ccccc21)NC(=O)CC[C@H](N)C(=O)OC(C)C [S-fluorenylmethoxycarbonyl glutathionediisopropyl ester]
- IC50 [8]: 275 µM

Structure (SMILES): N[C@@H](CCC(=O)N[C@@H](CSCc1ccc(Br)cc1)C(=O)NCC(=O)OC1CCCC1)C(=O)OC1CCCC1 [dicyclopentyl ester of S-p-bromobenzylglutathione]
- potency relative to the diethyl ester, HL60 (HL60 cells [9]; literature (14)): twice as potent as the diethyl ester
- concentration of intracellular methylglyoxal (HL60 cells [10]): increased the measured concentration of intracellular methylglyoxal

Structure (SMILES): CC(=O)C=O [methylglyoxal]
- inhibition of tumor cells by exogenous methylglyoxal (tumor cells): selective inhibitory activity toward rapidly proliferating tumor cells versus nonproliferating normal cells in vitro; also recorded: inhibit the growth of tumor cells in tissue culture

Structure (SMILES): CCOC(=O)CNC(=O)[C@H](CSCc1ccc(Br)cc1)NC(=O)CC[C@H](N)C(=O)OCC [p-BrbzylSG(Et)2, Sp-bromobenzylglutathione diethyl ester, reference compound]
- substrate for GlxII in words (GlxII): cannot serve as a substrate for GlxII
- Ki (human erythrocyte GlxI): 0.17 µM
- IC50 [1]: 15 ± 5 µM
- relative potency, B16 ([1]; versus 3(Et)2): about half as potent as 3(Et)2
- toxicity to splenic lymphocytes / selectivity in words (splenic lymphocytes; listed as S-p-Bromobenzylglutathione diethyl ester): selective toxicity
- toxicity to splenic lymphocytes / selectivity in words (splenic lymphocytes; listed as S-p-bromobenzylglutathione diethyl ester): significant selective toxicity to L1210 cells
- IC50 with HL60 cells versus nonproliferating human neutrophils (HL60 cells [9]; lower with HL60, literature (13)): about 5 -fold
- relative potency, L1210 (L1210 cells [3]; L1210 cells): as potent as 2(Et)2 and 3(Et)2
- IC50 (L1210 cells [3]; [11]): 9.8 ± 3.2 µM
- toxicity to human tumor cell lines (human tumor cell lines): toxic to a range of different human tumor cell lines in culture
